Experimental data published in article PMC9088798, “An Approach to Derive Functional Peptide Inhibitors of Transcription Factor Activity” (JACS Au, 2022).

Legend:
cJun bZIP [1] = assay: CD thermal denaturation of heterodimer with cJun bZIP; assay type: binding, human
Experimental: Figure 5 TBS winner peptide HingeW binds cJun preferentially over A-FosW. CD spectra (20 °C) show the binding of cJun to either (A) HingeW or (B) A-FosW. […] However, the effect is larger for HingeW, indicating a greater increase in peptide helicity. Similarly, the thermal denaturation of cJun bound to either (C) HingeW or (D) A-FosW is right-shifted from the average of the component peptide denaturation profiles. […] CD dimer exchange spectra show (E) an increase in helicity when HingeW is mixed with the A-FosW/cJun heterodimer as the HingeW exchanges with the A-FosW due to the binding preference of cJun for HingeW and (F) no shift from the average is observed when A-FosW is mixed with the HingeW/cJun heterodimer, indicating no change in dimer populations. Arrows are shown to highlight the shift from the average at 190 and 222 nm. In all experiments, the total sample peptide concentration was fixed to 10 μM, using equimolar concentrations of each component peptide to remove concentration-dependent effects. […]
µM) alongside ampicillin, kanamycin and chloramphenicol to maintain the required plasmids, and IPTG (1 mM) to induce protein expression. The library transformants were […]
however a lower stringency is used initially before selection is increased in later steps.
Colonies from this first round of selection were pooled and serially grown in liquid culture at starting OD600 of 0.05 and grown at 37°C with shaking at 200 rpm until the OD600 […]
increased to the optimum 4 µM in subsequent passages. Bacteria containing the most effective functional antagonists were expected to produce higher levels of TRE-mDHFR which provides a growth advantage, and these will dominate the culture. At each passage step, a sample of the culture was plated on LB agar (supplemented with antibiotics to maintain plasmids) to select and sequence individual colonies, and a DNA pool was also sequenced. This allows the occurrence of library members to be monitored as winner sequences are selected for. […]

cJun bZIP [2] = assay: CD spectroscopy, binding to cJun bZIP (helicity of heterodimer); design: species or system human; conditions: 20 °C, total peptide 10 μM equimolar, pH 7.4
Source text: Experiments were next undertaken to compare the binding of A-FosW and TBS-optimized HingeW to the cJun bZIP. CD spectroscopy was utilized to measure the global secondary structure of homo- and heterodimeric peptide samples, providing information on global α-helicity and thermal denaturation temperatures (Tm). The HingeW/cJun spectrum was 82% higher in α-helical content relative to the average of the two-component spectra (Figure 5A). […] This occurs as the total peptide concentration of the sample is kept constant (10 μM), meaning that the concentration of each component is halved upon mixing. If a sample component structure is unchanged upon mixing (i.e., no binding occurs), the CD signal for each component will average. The same, though smaller, trend was observed from the A-FosW/cJun spectra, where the α-helicity was 39% greater than the average (Figure 5B). This increased α-helical gain upon binding of HingeW/cJun implies a higher affinity interaction. Of note is that HingeW in isolation is 12.9% less helical relative to A-FosW. The AGADIR helical propensity calculator was used to calculate predicted helicity scores of 14.5 and 13.2 for A-FosW and HingeW, respectively.[42] […]
increased to the optimum 4 µM in subsequent passages. […] This allows the occurrence of library members to be monitored as winner sequences are selected for. […]

TRE DNA = assay: EMSA, binding of cJun bZIP to TRE DNA; conditions: cJun bZIP 20 μM, TRE DNA 2 μM, relative to DNA alone
Experimental: To provide further evidence of functional antagonism, an electrophoretic mobility shift assay (EMSA) was employed. […] No bound cJun/TRE DNA band was observed as the overall charge of this complex prohibited entry into the gel. Antagonism was therefore best observed by monitoring the intensity of the free DNA band.
Isothermal Titration Calorimetry (ITC): Peptides were studied in an ITC buffer consisting of 10 mM potassium phosphate, 150 mM potassium fluoride and 5 mM TCEP at pH 7.4. Using a MicroCal VP-ITC instrument (Malvern), 10 µL injections of antagonist peptide (HingeW or A-FosW) at 10 µM were injected into the cell containing cJun at 1 µM.
MicroCal Origin software was used to record and analyse the heat change upon addition.
Control experiments involved the injection of the antagonist peptide sample into the cell containing ITC buffer alone to determine the heat of dilution which was subtracted. The resulting binding data were fit to a one site binding model to extract the enthalpy change of binding (ΔH) and the equilibrium binding constant (K D), from which the free energy change of binding (ΔG) and the entropy change of binding (ΔS) was calculated (41).
Thermodynamic parameters are presented as an average of two independent experiments with errors given as one standard deviation. […]

Substance	smaller initial transition of heterodimer with cJun (double transition) (cJun bZIP [1]; 222 nm thermal denaturation) [°C]	Tm of heterodimer with cJun (cJun bZIP [1]; 222 nm, 1-90 °C at 1 °C increments, total peptide 10 μM equimolar, pH 7.4, two-state model) [°C]	ΔTm from component average (heterodimer with cJun) (cJun bZIP [1]; heterodimer Tm minus average of component peptide denaturation profiles, for HingeW an estimate because homodimer Tm undeterminable) [°C]	increase in α-helical content of heterodimer with cJun relative to average of component spectra (cJun bZIP [2]; 150 mM potassium phosphate, 150 mM KF, 5 mM TCEP) [%]	Fraction helicity of heterodimer with cJun (cJun bZIP [2]) [%]	free DNA band intensity on adding cJun bZIP (TRE DNA)
LEQRAEELARENEELEKEAEELEQELDELQAEIEQLEERNYALRKEIEDLQKQLEKL [A-FosW, N-terminal AS and C-terminal GAP caps, 6xHis-tagged]	~30	69.9	27.5	39	38.7	
cJun bZIP: human cJun bZIP domain, Arg252 to Leu308 (target protein)						significant reduction in the free DNA band intensity
